Experimental data taken from PubChem BioAssay (NCI).
Several values for one entry are separate records, joined by “and”; a condition that tells them apart may be missing. Equal entries are not always repeated.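 Interpolation was linear, between the two tested concentrations surrounding the appropriate level; five concentrations were tested over 48 hours in 96-well plates. Here, GI50 denotes the concentration required for 50% inhibition of growth. TGI: total growth inhibition.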

How the values were obtained:
Assay in all cases: NCI tumour cell line growth inhibition, 48 h
CAKI-1 renal = tested on: CAKI-1 renal
COLO 205 colon = tested on: COLO 205 colon
DU-145 prostate = tested on: DU-145 prostate
EKVX NSCLC = tested on: EKVX NSCLC
HCT-116 colon = tested on: HCT-116 colon
HOP-18 NSCLC = tested on: HOP-18 NSCLC
HT29 colon = tested on: HT29 colon
KM12 colon = tested on: KM12 colon
NCI-H226 lung = tested on: NCI-H226 lung
NCI-H460 lung = tested on: NCI-H460 lung
NCI-H522 lung = tested on: NCI-H522 lung
OVCAR-5 ovarian = tested on: OVCAR-5 ovarian
P388/ADR leukemia = tested on: P388/ADR leukemia
SK-MEL-28 melanoma = tested on: SK-MEL-28 melanoma
SR leukemia = tested on: SR leukemia
TK-10 renal = tested on: TK-10 renal
UO-31 renal = tested on: UO-31 renal

CCOC(=O)C(CC(C)C)NC(=O)C(Cc1ccc(N(CCCl)CCCl)cc1)NC(C)=O (stereo not drawn)
GI50 (CAKI-1 renal): 3.71 µM
TGI (CAKI-1 renal): 16.2 µM and 6.73 µM
GI50 (COLO 205 colon): 7.01 µM
TGI (COLO 205 colon): 19.8 µM and 13 µM
TGI (DU-145 prostate): 21.9 µM
GI50 (EKVX NSCLC): 19.7 µM
TGI (EKVX NSCLC): 35.7 µM and 27.7 µM
GI50 (HCT-116 colon): 12.7 µM
TGI (HCT-116 colon): 29.3 µM and 39.8 µM
TGI (HOP-18 NSCLC): 33.7 µM
GI50 (HT29 colon): 14.9 µM
TGI (HT29 colon): 36.7 µM and 31.8 µM
GI50 (KM12 colon): 17.8 µM
TGI (KM12 colon): 37.5 µM and 44.7 µM
GI50 (NCI-H226 lung): 12.2 µM
TGI (NCI-H226 lung): 28.3 µM and 41.1 µM
TGI (NCI-H460 lung): 14.1 µM and 17.6 µM
GI50 (NCI-H522 lung): 2.52 µM
TGI (NCI-H522 lung): 8.68 µM and 3.87 µM
TGI (OVCAR-5 ovarian): 32 µM and 33.5 µM
TGI (P388/ADR leukemia): 10.5 µM
GI50 (SK-MEL-28 melanoma): 14.6 µM
TGI (SK-MEL-28 melanoma): 31.2 µM and 19.3 µM
GI50 (SR leukemia): 1.04 µM and 0.895 µM
TGI (SR leukemia): 10.8 µM and 7 µM
TGI (TK-10 renal): 30.2 µM and 32.2 µM
GI50 (UO-31 renal): 13.2 µM
TGI (UO-31 renal): 73 µM and 20.4 µM
